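Where inhibition never reached the appropriate level, the endpoint shown equals the highest concentration tested. Otherwise, values were interpolated linearly from a five-concentration, 48-hour dose response in 96-well plates. At the GI50, growth is halved.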 Activity calls are given as the source filed them. Rule as the data show it: active = GI50 up to about 1.1 µM and inactive = higher.
Assays:
Test in all cases: growth of human tumour cells (NCI), 48 h
[1] = tested on: 786-0
[2] = tested on: A498
[3] = tested on: A549
[4] = tested on: ACHN
[5] = tested on: BT-549
[6] = tested on: CAKI-1
[7] = tested on: CCRF-CEM
[8] = tested on: COLO 205
[9] = tested on: DU-145
[10] = tested on: EKVX
[11] = tested on: HCC 2998
[12] = tested on: HCT-116
[13] = tested on: HCT-15
[14] = tested on: HL-60
[15] = tested on: HOP-62
[16] = tested on: HOP-92
[17] = tested on: HT-29
[18] = tested on: Hs-578T
[19] = tested on: IGROV-1
[20] = tested on: K562
[21] = tested on: KM12
[22] = tested on: LOX IMVI
[23] = tested on: M14
[24] = tested on: MCF7
[25] = tested on: MDA-MB-231
[26] = tested on: MDA-MB-435
[27] = tested on: MDA-N
[28] = tested on: MOLT-4
[29] = tested on: Malme-3M
[30] = tested on: NCI-H226
[31] = tested on: NCI-H23
[32] = tested on: NCI-H460
[33] = tested on: NCI-H522
[34] = tested on: NCI/ADR-RES
[35] = tested on: OVCAR-3
[36] = tested on: OVCAR-4
[37] = tested on: OVCAR-5
[38] = tested on: OVCAR-8
[39] = tested on: PC-3
[40] = tested on: RXF 393
[41] = tested on: SF-268
[42] = tested on: SF-295
[43] = tested on: SF-539
[44] = tested on: SK-MEL-28
[45] = tested on: SK-MEL-2
[46] = tested on: SK-MEL-5
[47] = tested on: SK-OV-3
[48] = tested on: SN12C
[49] = tested on: SNB-19
[50] = tested on: SNB-75
[51] = tested on: SW-620
[52] = tested on: T47D
[53] = tested on: TK-10
[54] = tested on: U-251
[55] = tested on: UACC-257
[56] = tested on: UACC-62
[57] = tested on: UO-31
[58] = tested on: RPMI-8226

## O=c1[nH]c2ccccc2c(=O)c2cc3ccccc3cc12
[1]
  GI50: 6.58 µM (inactive)
[2]
  GI50: 17.2 µM (inactive)
[3]
  GI50: 31.3 µM (inactive)
[4]
  GI50: 33.7 µM (inactive)
[5]
  GI50: 15.7 µM (inactive)
[6]
  GI50: 16.2 µM (inactive)
[7]
  GI50: 51.5 µM (inactive)
[8]
  GI50: 88.7 µM (inactive)
[9]
  GI50: 26.9 µM (inactive)
[10]
  GI50: > 100 µM (inactive)
[11]
  GI50: > 100 µM (inactive)
[12]
  GI50: 5.78 µM (inactive)
[13]
  GI50: 74.8 µM
[14]
  GI50: 40 µM (inactive)
[15]
  GI50: 10.4 µM (inactive)
[16]
  GI50: 3.9 µM (inactive)
[17]
  GI50: > 100 µM (inactive)
[18]
  GI50: 8.81 µM (inactive)
[19]
  GI50: 48.2 µM (inactive)
[20]
  GI50: > 100 µM (inactive)
[21]
  GI50: 97.3 µM (inactive)
[22]
  GI50: 27.9 µM (inactive)
[23]
  GI50: 45.3 µM (inactive)
[24]
  GI50: > 100 µM (inactive)
[25]
  GI50: 6.35 µM (inactive)
[26]
  GI50: > 100 µM (inactive)
[27]
  GI50: > 100 µM (inactive)
[28]
  GI50: 92.9 µM (inactive)
[29]
  GI50: 45.6 µM (inactive)
[30]
  GI50: 16.7 µM (inactive)
[31]
  GI50: 19.1 µM (inactive)
[32]
  GI50: 16.4 µM (inactive)
[33]
  GI50: 10.6 µM (inactive)
[34]
  GI50: 26.6 µM (inactive)
[35]
  GI50: 22.7 µM (inactive)
[36]
  GI50: 23.4 µM (inactive)
[37]
  GI50: > 100 µM (inactive)
[38]
  GI50: 10 µM (inactive)
[39]
  GI50: > 100 µM (inactive)
[40]
  GI50: 18 µM (inactive)
[41]
  GI50: 3.42 µM (inactive)
[42]
  GI50: 18.6 µM (inactive)
[43]
  GI50: 20.9 µM (inactive)
[44]
  GI50: 67 µM (inactive)
[45]
  GI50: 22.5 µM (inactive)
[46]
  GI50: 49.2 µM (inactive)
[47]
  GI50: 11.8 µM (inactive)
[48]
  GI50: 71.4 µM (inactive)
[49]
  GI50: 12.1 µM (inactive)
[50]
  GI50: 3.92 µM (inactive)
[51]
  GI50: 65.5 µM (inactive)
[52]
  GI50: > 100 µM (inactive)
[53]
  GI50: 15.7 µM (inactive)
[54]
  GI50: 6.28 µM (inactive)
[55]
  GI50: > 100 µM (inactive)
[56]
  GI50: 41.6 µM (inactive)
[57]
  GI50: 35.3 µM (inactive)

## CCCCC(Sc1cc(Cl)c(C)cc1S(=O)(=O)Nc1nc(N)n[nH]1)C(=O)OC (stereo not drawn)
[1]
  GI50: > 10 µM (inactive)
[2]
  GI50: > 10 µM (inactive)
[3]
  GI50: > 10 µM (inactive)
[4]
  GI50: > 10 µM (inactive)
[5]
  GI50: > 10 µM (inactive)
[6]
  GI50: > 10 µM (inactive)
[7]
  GI50: > 10 µM (inactive)
[8]
  GI50: > 10 µM (inactive)
[9]
  GI50: > 10 µM (inactive)
[10]
  GI50: > 10 µM (inactive)
[11]
  GI50: > 10 µM (inactive)
[12]
  GI50: > 10 µM (inactive)
[13]
  GI50: > 10 µM
[14]
  GI50: > 10 µM (inactive)
[15]
  GI50: > 10 µM (inactive)
[17]
  GI50: > 10 µM (inactive)
[18]
  GI50: > 10 µM (inactive)
[19]
  GI50: > 10 µM (inactive)
[20]
  GI50: > 10 µM (inactive)
[21]
  GI50: > 10 µM (inactive)
[22]
  GI50: > 10 µM (inactive)
[23]
  GI50: > 10 µM (inactive)
[24]
  GI50: > 10 µM (inactive)
[25]
  GI50: > 10 µM (inactive)
[26]
  GI50: > 10 µM (inactive)
[27]
  GI50: > 10 µM (inactive)
[28]
  GI50: > 10 µM (inactive)
[29]
  GI50: > 10 µM (inactive)
[30]
  GI50: > 10 µM (inactive)
[31]
  GI50: > 10 µM (inactive)
[32]
  GI50: > 10 µM (inactive)
[33]
  GI50: > 10 µM (inactive)
[34]
  GI50: > 10 µM (inactive)
[35]
  GI50: > 10 µM (inactive)
[36]
  GI50: > 10 µM (inactive)
[37]
  GI50: > 10 µM (inactive)
[38]
  GI50: > 10 µM (inactive)
[39]
  GI50: > 10 µM (inactive)
[58]
  GI50: > 10 µM (inactive)
[40]
  GI50: > 10 µM (inactive)
[41]
  GI50: > 10 µM (inactive)
[42]
  GI50: > 10 µM (inactive)
[43]
  GI50: > 10 µM (inactive)
[44]
  GI50: > 10 µM (inactive)
[45]
  GI50: > 10 µM (inactive)
[46]
  GI50: > 10 µM (inactive)
[47]
  GI50: > 10 µM (inactive)
[48]
  GI50: > 10 µM (inactive)
[49]
  GI50: > 10 µM (inactive)
[50]
  GI50: > 10 µM (inactive)
[51]
  GI50: > 10 µM (inactive)
[52]
  GI50: > 10 µM (inactive)
[53]
  GI50: > 10 µM (inactive)
[54]
  GI50: > 10 µM (inactive)
[55]
  GI50: > 10 µM (inactive)
[56]
  GI50: > 10 µM (inactive)
